{
  "source": "paper PMC5617738",
  "about": "(Toxicology Reports, 2016)",
  "key": {"PBMCs": {"test_system": "PBMCs", "conditions": "read-out: IC50 (toxicity on PBMCs); cited from earlier work"}, "[1]": {"test": "Solubility in test solution", "type": "physicochemical", "conditions": "solution with a maximum of 1% DMSO"}, "Plasmodium berghei": {"test_system": "Plasmodium berghei", "conditions": "P. berghei infected mice, cited from earlier work"}, "HL-7702": {"test_system": "HL-7702", "conditions": "HL-7702 cells; cited from earlier work"}, "rodent": {"test_system": "rodent", "conditions": "cited from earlier work"}, "murine macrophage cells": {"test_system": "murine macrophage cells", "conditions": "cited from earlier work"}},
  "note": "Read-outs that look alike come from different tables or passages of the source.",
  "data": [
    {"smiles": "Cc1cc(O)c2c(c1)C(=O)C(O)=CC2=O", "note": "[2,5-Dihydroxy-7-methyl-1,4-naphthoquinone]", "values": [
      {"measurement": "IC50", "setting": "PBMCs", "value": 54, "unit": "µM"}
    ]},
    {"smiles": "Cc1cc(O)c2c(c1F)C(=O)C=CC2=O", "note": "[8-Fluoro-5-hydroxy-7-methyl-1,4-naphthoquinone]", "values": [
      {"measurement": "IC50", "setting": "PBMCs", "value": 189, "unit": "µM"}
    ]},
    {"smiles": "O=C1C(O)=C(Nc2ccccc2)C(=O)c2ccccc21", "note": "[4a, 2-hydroxy-3-anilino-1,4-naphthoquinone]", "values": [
      {"measurement": "Solubility", "setting": "[1]", "value": "soluble in the solution with a maximum of 1% DMSO"},
      {"measurement": "Parasitemia inhibition (%) Day 5", "setting": "Plasmodium berghei; vs untreated control", "value": 53.3, "unit": "%"},
      {"measurement": "Parasitemia inhibition (%) Day 7", "setting": "Plasmodium berghei; vs untreated control", "value": 18.5, "unit": "%"},
      {"measurement": "Mean Survival", "setting": "Plasmodium berghei", "value": "32.5 ± 6.6", "unit": "days"},
      {"measurement": "Parasitemia Day 5", "setting": "Plasmodium berghei; first Parasitemia column", "value": 0.7},
      {"measurement": "Parasitemia Day 5", "setting": "Plasmodium berghei; second Parasitemia column, head printed Day 5", "value": 2.2}
    ]},
    {"smiles": "O=C1C=C(O)C(=O)c2ccccc21", "note": "[2-hydroxy-1,4-naphthoquinone]", "values": [
      {"measurement": "Relative cytotoxicity among six naphthoquinones", "setting": "HL-7702", "value": "less toxic"},
      {"measurement": "In vivo toxicity", "setting": "rodent", "value": "highly toxic, causing both hemolytic anaemia and renal tubular necrosis"}
    ]},
    {"smiles": "COc1cc(C=O)ccc1O", "note": "[vanillin]", "values": [
      {"measurement": "IC50", "setting": "murine macrophage cells", "value": 645, "unit": "µg/mL"}
    ]},
    {"smiles": "Cc1cc(O)c2c(c1)C(=O)C=CC2=O", "note": "[7-MJ, 5-Hydroxy-7-methyl-1,4-naphthoquinone]", "values": [
      {"measurement": "IC50", "setting": "PBMCs", "value": 18.4, "unit": "µM"}
    ]}
  ]
}
